Patent US20100137315A1, “Sphingosine Kinase Inhibitors and Methods of Their Use” (APOGEE BIOTECHNOLOGY CORPORATION, priority 2005, published 2010)

Biological target: T1, recombinant human SK (Homo sapiens, UniProt Q9NYA1)
T1 construct: glutathione-S-transferase (GST) (N); made in house; host or cells: bacteria (pGEX vector)
Assay: Inhibition of recombinant human SK, LC/MS/MS assay
Assay type: biochemical
Conditions: 6 μg/ml compound
Protocol: An assay for identifying inhibitors of recombinant human SK has been established (French et al., 2003, Cancer Res 63: 5962). cDNA for human SK was subcloned into a pGEX bacterial expression vector, which results in expression of the enzyme as a fusion protein with glutathione-S-transferase, and the fusion protein is then purified on a column of immobilized glutathione. SK activity is measured by incubation of the recombinant SK with [^3H]sphingosine and 1 mM ATP under defined conditions, followed by extraction of the assay mixture with chloroform:methanol under basic conditions. […] Radioactivity in aliquots of the aqueous phase is then quantified as a measure of [^3H]S1P formation. There is a low background level of partitioning of [^3H]sphingosine into the aqueous phase, and addition of the recombinant SK greatly increases the formation of [^3H]S1P.
In an alternate assay procedure, the recombinant human SK was incubated with unlabeled sphingosine and ATP as described above. After 30 minutes, the reactions were terminated by the addition of acetonitrile to directly extract the newly synthesized S1P. The amount of S1P in the samples is then quantified as follows. C17 base D-erythro-sphingosine and C17 S1P are used as internal standards for sphingosine and S1P, respectively. These seventeen-carbon fatty acid-linked sphingolipids are not naturally produced, making these analogs excellent standards. The lipids are then fractionation by High-Performance Liquid Chromatography using a C8-reverse phase column eluted with 1 mM methanolic ammonium formate/2 mM aqueous ammonium formate. A Finnigan LCQ Classic LC-MS/MS is used in the multiple reaction monitoring positive ionization mode to acquire ions at m/z of 300 (precursor ion)→282 (product ion) for sphingosine and 380→264 for S1P. Calibration curves are generated by plotting the peak area ratios of the synthetic standards for each sphingolipid, and used to determine the normalized amounts of sphingosine and S1P in the samples.
Each Compound of this invention was tested for its ability to inhibit recombinant SK using the LC/MS/MS assay described above. Typically, the Compounds were individually dissolved in dimethylsulfoxide and tested at a final concentration of 6 micrograms/ml.

T1 sequence (Q9NYA1 whole entry): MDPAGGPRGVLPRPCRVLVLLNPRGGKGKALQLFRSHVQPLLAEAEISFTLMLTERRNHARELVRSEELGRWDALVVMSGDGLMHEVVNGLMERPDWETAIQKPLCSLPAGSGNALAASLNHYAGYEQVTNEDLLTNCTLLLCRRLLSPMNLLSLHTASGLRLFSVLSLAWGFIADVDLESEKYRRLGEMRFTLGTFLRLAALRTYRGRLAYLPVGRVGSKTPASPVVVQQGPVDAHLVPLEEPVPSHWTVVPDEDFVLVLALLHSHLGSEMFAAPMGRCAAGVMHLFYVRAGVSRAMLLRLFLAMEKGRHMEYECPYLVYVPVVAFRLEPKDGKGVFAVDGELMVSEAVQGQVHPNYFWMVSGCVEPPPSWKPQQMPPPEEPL

Compound | inhibition at 6 µg/mL [%]
O=C(NCc1cc(C(F)(F)F)cc(C(F)(F)F)c1)c1nc(-c2ccc(Cl)cc2)cs1 [Compound 60, 4-(4-Chloro-phenyl)-thiazole-2-carboxylic Acid 3,5-bis-trifluoromethyl-benzylamide] | 87
O=C(NCc1cc(F)c(F)c(F)c1)c1nc(-c2ccc(Cl)cc2)cs1 [Compound 42, 4-(4-Chloro-phenyl)-thiazole-2-carboxylic acid 3,4,5-trifluoro-benzylamide] | 79
COc1ccc(CCNC(=O)c2nc(-c3ccc(Cl)cc3)cs2)cc1Br [Compound 41, 4-(4-Chloro-phenyl)-thiazole-2-carboxylic acid [2-(3-bromo-4-methoxy-phenyl)-ethyl]-amide] | 22
O=C(NCCc1cccc(Oc2ccccc2)c1)c1nc(-c2ccc(Cl)cc2)cs1 [Compound 44, 4-(4-Chloro-phenyl)-thiazole-2-carboxylic acid [2-(3-phenoxy-phenyl)-ethyl]-amide] | 69
O=C(NCCc1ccncc1)c1nc(-c2ccc(Cl)cc2)cs1 [Compound 61, 4-(4-Chloro-phenyl)-thiazole-2-carboxylic Acid (2-pyridin-4-yl-ethyl)-amide] | 0
O=C(Nc1nc(-c2ccc(Cl)cc2)cs1)c1ccc(F)cc1 [Compound 67, N-[4-(4-Chloro-phenyl)-thiazol-2-yl]-4-fluoro-benzamide] | 41
O=C(NCc1cccc(OC(F)(F)F)c1)c1nc(-c2ccc(Cl)cc2)cs1 [Compound 43, 4-(4-Chloro-phenyl)-thiazole-2-carboxylic acid 3-trifluoromethoxy-benzylamide] | 59
O=C(Nc1nc(-c2ccc(Cl)cc2)cs1)c1cccc(F)c1 [Compound 65, N-[4-(4-Chloro-phenyl)-thiazol-2-yl]-3-fluoro-benzamide] | 66
O=C(NCc1ccc(F)c(Cl)c1)c1nc(-c2ccc(Cl)cc2)cs1 [Compound 39, 4-(4-Chloro-phenyl)-thiazole-2-carboxylic acid 3-chloro-4-fluoro-benzylamide] | 69
O=C(NCc1ccc(OC(F)(F)F)cc1)c1nc(-c2ccc(Cl)cc2)cs1 [Compound 52, 4-(4-Chloro-phenyl)-thiazole-2-carboxylic Acid 4-trifluoromethoxy-benzylamide] | 78
Fc1cc(F)cc(COCNc2nc(-c3ccc(Cl)cc3)cs2)c1 [Compound 79, [4-(4-Chloro-phenyl)-thiazol-2-yl]-(3,5-difluoro-benzyloxymethyl)-amine] | 53
CS(=O)(=O)c1ccc(CNC(=O)c2nc(-c3ccc(Cl)cc3)cs2)cc1 [Compound 63, 4-(4-Chloro-phenyl)-thiazole-2-carboxylic Acid 4-methanesulfonyl-benzylamide] | 3
O=C(NCc1cc(F)cc(C(F)(F)F)c1)c1nc(-c2ccc(Cl)cc2)cs1 [Compound 75, 4-(4-Chloro-phenyl)-thiazole-2-carboxylic acid 3-fluoro-5-trifluoromethyl-benzylamide] | 3
O=C(NCCCN1CCCC1)c1nc(-c2ccc(Cl)cc2)cs1 [Compound 59, 4-(4-Chloro-phenyl)-thiazole-2-carboxylic Acid (3-pyrrolidin-1-yl-propyl)-amide] | 46
Fc1ccc(F)c(OCNc2nc(-c3ccc(Cl)cc3)cs2)c1 [Compound 78, [4-(4-Chloro-phenyl)-thiazol-2-yl]-(2,5-difluoro-phenoxymethyl)-amine] | 70
CN1CCN(NC(=O)c2nc(-c3ccc(Cl)cc3)cs2)CC1 [Compound 46, 4-(4-Chloro-phenyl)-thiazole-2-carboxylic Acid (4-methyl-piperazin-1-yl)-amide] | 80

Compound | inhibition at 6 µg/mL [%]
O=C(NCc1ccc(C(F)(F)F)cc1)c1nc(-c2ccc(Cl)cc2)cs1 [Compound 58, 4-(4-Chloro-phenyl)-thiazole-2-carboxylic Acid 4-trifluoromethyl-benzylamide] | 86
CCCC(=O)Oc1ccc(C(=O)Nc2nc(-c3ccc(Cl)cc3)cs2)cc1OC(=O)CCC [Compound 25, Butyric acid 2-butyryloxy-4-[4-(4-chloro-phenyl)-thiazol-2-ylcarbamoyl]-phenyl ester] | 0
O=C(NCCc1ccc2c(c1)OCO2)c1nc(-c2ccc(Cl)cc2)cs1 [Compound 64, 4-(4-Chloro-phenyl)-thiazole-2-carboxylic Acid (2-benzo[1,3]dioxol-5-yl-ethyl)-amide] | 90
COc1ccc(CCC(=O)Nc2nc(-c3ccc(Cl)cc3)cs2)cc1OC [Compound 23, N-[4-(4-Chloro-phenyl)-thiazol-2-yl]-3-(3,4-dimethoxy-phenyl)-propionamide] | 45
CCCC(=O)Oc1ccc(C=CC(=O)Nc2nc(-c3ccc(Br)cc3)cs2)cc1OC [Compound 20, Butyric acid 4-{2-[4-(4-bromo-phenyl)-thiazol-2-ylcarbamoyl]-vinyl}-2-methoxy-phenyl ester] | 6
CCSCCNC(=O)c1nc(-c2ccc(Cl)cc2)cs1 [Compound 48, 4-(4-Chloro-phenyl)-thiazole-2-carboxylic Acid (2-ethylsulfanyl-ethyl)-amide] | 56
CCCC(=O)Oc1ccc(CCC(=O)Nc2nc(-c3ccc(Cl)cc3)cs2)cc1OC(=O)CCC [Compound 26, Butyric acid 2-butyryloxy-4-{2-[4-(4-chloro-phenyl)-thiazol-2-ylcarbamoyl]-ethyl}-phenyl ester] | 0
O=C(C=Cc1ccc2c(c1)OCO2)Nc1nc(-c2ccc(Cl)cc2)cs1 [Compound 21, 3-Benzo[1,3]dioxol-5-yl-N-[4-(4-chloro-phenyl)-thiazol-2-yl]-acrylamide] | 26
CCCC(=O)Oc1ccc(C(=O)Nc2nc(-c3ccc(Cl)cc3)cs2)cc1OC [Compound 24, Butyric acid 4-[4-(4-chloro-phenyl)-thiazol-2-ylcarbamoyl]-2-methoxy-phenyl ester] | 0
O=C(NCc1ccc(-c2ccccc2)cc1)c1nc(-c2ccc(Cl)cc2)cs1 [Compound 55, 4-(4-Chloro-phenyl)-thiazole-2-carboxylic Acid (biphenyl-4-ylmethyl)-amide] | 20
O=C(Cc1ccc2c(c1)OCO2)Nc1nc(-c2ccc(Cl)cc2)cs1 [Compound 22, 2-Benzo[1,3]dioxol-5-yl-N-[4-(4-chloro-phenyl)-thiazol-2-yl]-acetamide] | 34
CCCC(=O)Oc1ccc(CC(=O)Nc2nc(-c3ccc(Cl)cc3)cs2)cc1N [Compound 31, Butyric acid 2-amino-4-{[4-(4-chloro-phenyl)-thiazol-2-ylcarbamoyl]-methyl}-phenyl ester] | 58
O=C(NCc1cc(F)cc(F)c1)c1nc(-c2ccc(Cl)cc2)cs1 [Compound 36, 4-(4-Chloro-phenyl)-thiazole-2-carboxylic acid 3,5-difluoro-benzylamide] | 14
O=C(Cc1ccc(F)cc1)Nc1nc(-c2ccc(Cl)cc2)cs1 [Compound 70, N-[4-(4-Chloro-phenyl)-thiazol-2-yl]-2-(4-fluoro-phenyl)-acetamide] | 54
O=C(CCc1ccc(F)cc1F)Nc1nc(-c2ccc(Cl)cc2)cs1 [Compound 47, N-[4-(4-Chloro-phenyl)-thiazol-2-yl]-3-(2,4-difluoro-phenyl)-propionamide] | 21
